Each compound was assayed against T1, HDAC6 enzyme (Homo sapiens, UniProt Q9UBN7) (assay: HDAC6 enzyme inhibitory activity (HDAC-Glo I/II Assay kit)). Conditions: 10 μM; wells without enzyme = 100% inhibition.
T1 construct: transducing full length HDAC6 gene into Sf-9 insect cells; GST; purchased SignalChem; host or cells: Sf-9 insect cells
T1 sequence (Q9UBN7 1-1215): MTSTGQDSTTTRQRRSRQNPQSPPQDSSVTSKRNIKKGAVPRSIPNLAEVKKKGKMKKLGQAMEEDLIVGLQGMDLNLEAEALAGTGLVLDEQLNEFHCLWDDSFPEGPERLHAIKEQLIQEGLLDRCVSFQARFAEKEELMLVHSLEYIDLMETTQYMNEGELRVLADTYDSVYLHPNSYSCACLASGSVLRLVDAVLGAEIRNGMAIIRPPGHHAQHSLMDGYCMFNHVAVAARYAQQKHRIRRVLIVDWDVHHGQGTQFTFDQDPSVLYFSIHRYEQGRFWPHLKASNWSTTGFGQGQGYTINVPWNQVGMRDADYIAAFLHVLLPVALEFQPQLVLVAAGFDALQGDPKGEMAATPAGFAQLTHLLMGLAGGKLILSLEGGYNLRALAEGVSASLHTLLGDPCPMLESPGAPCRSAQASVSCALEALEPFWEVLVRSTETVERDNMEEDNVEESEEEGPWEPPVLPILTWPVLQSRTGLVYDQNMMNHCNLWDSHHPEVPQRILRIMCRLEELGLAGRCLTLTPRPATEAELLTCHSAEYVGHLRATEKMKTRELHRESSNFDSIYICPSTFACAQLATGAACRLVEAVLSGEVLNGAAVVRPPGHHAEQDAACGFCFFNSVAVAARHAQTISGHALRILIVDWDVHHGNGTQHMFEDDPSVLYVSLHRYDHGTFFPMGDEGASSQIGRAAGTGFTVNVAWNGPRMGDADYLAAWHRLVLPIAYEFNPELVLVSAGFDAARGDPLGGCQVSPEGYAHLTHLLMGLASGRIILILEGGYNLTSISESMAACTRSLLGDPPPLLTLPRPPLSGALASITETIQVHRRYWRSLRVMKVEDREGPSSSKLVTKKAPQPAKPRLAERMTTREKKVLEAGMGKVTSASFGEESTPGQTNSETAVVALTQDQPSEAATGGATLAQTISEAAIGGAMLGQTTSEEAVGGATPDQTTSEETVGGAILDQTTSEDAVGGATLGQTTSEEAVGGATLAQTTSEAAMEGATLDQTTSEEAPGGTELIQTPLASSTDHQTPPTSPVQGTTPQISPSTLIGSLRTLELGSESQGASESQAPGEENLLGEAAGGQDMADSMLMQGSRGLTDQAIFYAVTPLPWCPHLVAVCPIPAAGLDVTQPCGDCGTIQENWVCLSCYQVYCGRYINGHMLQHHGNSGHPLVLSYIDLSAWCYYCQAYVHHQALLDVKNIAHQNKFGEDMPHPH
Type: biochemical
Method: HDAC6 enzyme prepared by transducing full length HDAC6 gene into Sf-9 insect cells and purifying by GST affinity column were purchased from SignalChem. Using this enzyme, HDAC6 enzyme inhibitory activities of the compound of the present invention were evaluated. Enzymes were used after preserved at −70° C. HDAC6 enzyme inhibitory activity of the compound of the present invention was measured using HDAC-Glo™ I/II Assay kit (Promega) according to the following experimental method. The test compound diluted with assay buffer (24 mM Tris-HCl (pH 7.5), 1 mM MgCl2, 0.35 mM KCl, 135 mM NaCl, 0.6 mM Glutathione, 0.01% Tween-20) was added to a 384-well plate by each 2 μL. Then, HDAC6 enzyme solution diluted with assay buffer was added thereto by each 4 μL, and the plate was incubated at room temperature for 60 min. After incubated, HDAC substrate-Developer solution prepared according to Promega protocol attached to the assay kit was added to the 384-well plate by each 2 μL, and the enzyme reaction was started. After reacting at room temperature for 20 min, luminescence level was measured using plate reader Envision (PerkinElmer). The inhibitory activity of each compound of Example was calculated as a relative activity value when luminescence level in wells without enzyme is considered as 100% inhibition.

HDAC6 inhibitory rate (%) (10 μM), 100%:
O=C1c2cc(-c3nnc(C(F)F)o3)ccc2CN1[C@@H]1CCCC[C@H]1n1cccn1 (relative stereo) [Example 529, 6-(5-(difluoromethyl)-1,3,4-oxadiazol-2-yl)-2-((1R*,2R*)-2-(1H-pyrazol-1-yl)cyclohexyl)isoindolin-1-one (optical isomer)]
O=C1c2cc(-c3nnc(C(F)F)o3)ccc2CN1[C@H]1CCCC[C@H]1n1cccn1 (relative stereo) [Example 543, 6-(5-(difluoromethyl)-1,3,4-oxadiazol-2-yl)-2-((1S*,2R*)-2-(1H-pyrazol-1-yl)cyclohexyl)isoindolin-1-one (optical isomer)]
COC(=O)N1CC[C@@H](c2ccc(F)cc2)[C@H](N2Cc3ccc(-c4nnc(C(F)F)o4)cc3C2=O)C1 (relative stereo) [Example 545, methyl (3S*,4S*)-3-(6-(5-(difluoromethyl)-1,3,4-oxadiazol-2-yl)-1-oxo-1,3-dihydro-2H-isoindol-2-yl)-4-(4-fluorophenyl)piperidine-1-carboxylate (optical isomer)]
O=C1c2cc(-c3nnc(C(F)F)o3)cnc2CN1[C@@H]1CCCC[C@H]1Oc1ccc(F)cc1 (relative stereo) [Example 552, 3-(5-(difluoromethyl)-1,3,4-oxadiazol-2-yl)-6-((1R*,2R*)-2-(4-fluorophenoxy)cyclohexyl)-6,7-dihydro-5H-pyrrolo[3,4-b]pyridin-5-one (optical isomer)]
O=C1c2cc(-c3nnc(C(F)F)o3)cnc2CN1[C@@H]1CCCC[C@H]1c1ccccn1 (relative stereo) [Example 588, 3-(5-(difluoromethyl)-1,3,4-oxadiazol-2-yl)-6-((1R*,2R*)-2-(pyridin-2-yl)cyclohexyl)-6,7-dihydro-5H-pyrrolo[3,4-b]pyridin-5-one (optical isomer)]

Same assay, conditions: 10 μM; wells without enzyme = 100% inhibition; read-out: HDAC6 inhibitory rate (%) (10 μM)

Inhibition at 10 µM, 99%:
CC(C)(C)OC(=O)N1CCC[C@@H](N2Cc3ccc(-c4nnc(C(F)F)o4)cc3C2=O)[C@H]1c1ccc(F)cc1 (racemic) [Example 618, tert-butyl (2RS,3RS)-3-(6-(5-(difluoromethyl)-1,3,4-oxadiazol-2-yl)-1-oxo-1,3-dihydro-2H-isoindol-2-yl)-2-(4-fluorophenyl)piperidine-1-carboxylate]
O=C1c2cc(-c3nnc(C(F)F)o3)ccc2CN1[C@@H]1CCCC[C@H]1n1cccn1 (relative stereo) [Example 528, 6-(5-(difluoromethyl)-1,3,4-oxadiazol-2-yl)-2-((1R*,2R*)-2-(1H-pyrazol-1-yl)cyclohexyl)isoindolin-1-one (optical isomer)]
O=C1c2cc(-c3nnc(C(F)F)o3)cnc2CN1[C@@H]1CCCC[C@H]1n1cccn1 (relative stereo) [Example 539, 3-(5-(difluoromethyl)-1,3,4-oxadiazol-2-yl)-6-((1R*,2R*)-2-(1H-pyrazol-1-yl)cyclohexyl)-6,7-dihydro-5H-pyrrolo[3,4-b]pyridin-5-one (optical isomer)]
COC(=O)N1CC[C@@H](c2ccc(F)cc2)[C@H](N2Cc3ccc(-c4nnc(C(F)F)o4)cc3C2=O)C1 (relative stereo) [Example 544, methyl (3S*,4S*)-3-(6-(5-(difluoromethyl)-1,3,4-oxadiazol-2-yl)-1-oxo-1,3-dihydro-2H-isoindol-2-yl)-4-(4-fluorophenyl)piperidine-1-carboxylate (optical isomer)]
O=C1c2cc(-c3nnc(C(F)F)o3)cnc2CN1[C@@H]1CCCC[C@H]1Oc1ccc(F)cc1 (relative stereo) [Example 551, 3-(5-(difluoromethyl)-1,3,4-oxadiazol-2-yl)-6-((1R*,2R*)-2-(4-fluorophenoxy)cyclohexyl)-6,7-dihydro-5H-pyrrolo[3,4-b]pyridin-5-one (optical isomer)]
O=C1c2cc(-c3nnc(C(F)F)o3)cnc2CN1[C@@H]1CCCC[C@H]1c1ccccn1 (relative stereo) [Example 587, 3-(5-(difluoromethyl)-1,3,4-oxadiazol-2-yl)-6-((1R*,2R*)-2-(pyridin-2-yl)cyclohexyl)-6,7-dihydro-5H-pyrrolo[3,4-b]pyridin-5-one (optical isomer)]

Inhibition at 10 µM, 90%:
O=C1c2cc(-c3nnc(C(F)F)o3)ccc2CN1[C@H]1CCCC[C@H]1n1cccn1 (relative stereo) [Example 542, 6-(5-(difluoromethyl)-1,3,4-oxadiazol-2-yl)-2-((1S*,2R*)-2-(1H-pyrazol-1-yl)cyclohexyl)isoindolin-1-one (optical isomer)]

Inhibition at 10 µM, 101%:
O=C1c2cc(-c3nnc(C(F)F)o3)ccc2CN1[C@@H]1CCCN[C@@H]1c1ccc(F)cc1 (racemic) [Example 620, 6-(5-(difluoromethyl)-1,3,4-oxadiazol-2-yl)-2-((2RS, 3RS)-2-(4-fluorophenyl)piperidin-3-yl)isoindolin-1-one]

Inhibition at 10 µM, 100%:
O=C(C(F)F)N1CCC[C@H](N2Cc3ccc(-c4nnc(C(F)F)o4)cc3C2=O)[C@H]1c1ccc(F)cc1 (racemic) [Example 584, 2-((2RS,3SR)-1-(difluoroacetyl)-2-(4-fluorophenyl)piperidin-3-yl)-6-(5-(difluoromethyl)-1,3,4-oxadiazol-2-yl)isoindolin-1-one]
O=C1c2cc(-c3nnc(C(F)F)o3)cnc2CN1[C@@H]1CCCC[C@H]1Oc1cncc(F)c1 (racemic) [Example 585, 3-(5-(difluoromethyl)-1,3,4-oxadiazol-2-yl)-6-((1RS,2RS)-2-((5-fluoropyridin-3-yl)oxy)cyclohexyl)-6,7-dihydro-5H-pyrrolo[3,4-b]pyridin-5-one]
O=C1c2cc(-c3nnc(C(F)F)o3)ccc2CN1[C@@H]1CCCN(C(=O)C(F)F)[C@@H]1c1ccc(F)cc1 (racemic) [Example 624, 2-((2RS,3RS)-1-(difluoroacetyl)-2-(4-fluorophenyl)piperidin-3-yl)-6-(5-(difluoromethyl)-1,3,4-oxadiazol-2-yl)isoindolin-1-one]
O=C1c2cc(-c3nnc(C(F)F)o3)cnc2CN1[C@@H]1CCCC[C@H]1c1ccn[nH]1 (racemic) [Example 654, 3-[5-(difluoromethyl)-1,3,4-oxadiazol-2-yl]-6-[(1RS,2RS)-2-(1H-pyrazol-5-yl)cyclohexyl]-6,7-dihydro-5H-pyrrolo[3,4-b]pyridin-5-one]
O=C1c2cc(-c3nnc(C(F)F)o3)ccc2CN1[C@@H]1CCC(F)(F)C[C@H]1c1ccccn1 (relative stereo) [Example 586, 6-(5-(difluoromethyl)-1,3,4-oxadiazol-2-yl)-2-((1R*,2R*)-4,4-difluoro-2-(pyridin-2-yl)cyclohexyl)isoindolin-1-one (Optical Isomer)]
O=C1c2cc(-c3nnc(C(F)F)o3)ccc2CN1[C@@H]1CCC(F)(F)C[C@@H]1c1ccccn1 (relative stereo) [Example 590, 6-(5-(difluooromethyl)-1,3,4-oxadiazol-2-yl)-2-((1R*,2S*)-4,4-difluoro-2-(pyridin-2-yl)cyclohexyl)isoindolin-1-one (optical isomer)]

Reference: patent US10435399B2, “HDAC6 inhibitory heterocyclic compound” (TAKEDA PHARMACEUTICAL COMPANY LIMITED, priority 2017, dated 2019)
